Source: PubChem BioAssay AID248 (DTP/NCI, 2004)
“And” between values parts separate entries of the source, which are not always exact repeats. Identical values can stand only once. Toxic doses and inconclusive results are not listed. Rule as the data show it: active = T/C of 150% or more; inactive = T/C below 125%.

System: L1210 leukemia ip in BDF1 mice, survival T/C
Assay: NCI In Vivo Anticancer Drug Screen. Data for tumor model L1210 Leukemia (intraperitoneal) in B6D2F1 (BDF1) mice
Settings: endpoint: mean survival time, higher = longer survival
How it was run: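 Antitumor effect is assessed in tumor-bearing animals. Survival in the compound arm is compared with a vehicle-dosed control arm and expressed as their quotient.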

[1] = dose: 10.0 mg/kg/injection, schedule: Q01DX009 (ip), vehicle: Klucel (hydroxypropylcellulose) (HPC)
[2] = dose: 20.0 mg/kg/injection, schedule: Q01DX009 (ip), vehicle: Klucel (hydroxypropylcellulose) (HPC)
[3] = dose: 40.0 mg/kg/injection, schedule: Q04DX003 (ip), vehicle: saline with Tween-80
[4] = dose: 100.0 mg/kg/injection, schedule: Q04DX003 (ip), vehicle: saline
[5] = dose: 200.0 mg/kg/injection, schedule: Q04DX003 (ip), vehicle: saline
[6] = dose: 400.0 mg/kg/injection, schedule: Q04DX003 (ip), vehicle: saline
[7] = dose: 100.0 mg/kg/injection, schedule: Q04DX003 (ip), vehicle: Klucel (hydroxypropylcellulose) (HPC)
[8] = dose: 200.0 mg/kg/injection, schedule: Q04DX003 (ip), vehicle: Klucel (hydroxypropylcellulose) (HPC)
[9] = dose: 75.0 mg/kg/injection, schedule: Q01DX001 (ip), vehicle: saline
[10] = dose: 100.0 mg/kg/injection, schedule: Q01DX009 (ip), vehicle: Klucel (hydroxypropylcellulose) (HPC)

Measured: T/C

Cc1cccc2c(Nc3ccc(NS(C)(=O)=O)cc3)c3ccccc3nc12
inactive: dose: 2.5 mg/kg/injection, schedule: Q01DX009 (ip), vehicle: Klucel (hydroxypropylcellulose) (HPC) 115 % of control | dose: 5.0 mg/kg/injection, schedule: Q01DX009 (ip), vehicle: Klucel (hydroxypropylcellulose) (HPC) 115 % of control | [1] 117 % of control | dose: 10.0 mg/kg/injection, schedule: Q01DX009 (ip), vehicle: saline with Tween-80 120 % of control | dose: 10.0 mg/kg/injection, schedule: Q01DX009 (sc), vehicle: saline 112 % of control | dose: 20.0 mg/kg/injection, schedule: Q01DX001 (ip), vehicle: saline with Tween-80 121 % of control | dose: 20.0 mg/kg/injection, schedule: Q01DX009 (sc), vehicle: saline 110 % of control | dose: 40.0 mg/kg/injection, schedule: Q01DX001 (ip), vehicle: saline with Tween-80 117 % of control | dose: 40.0 mg/kg/injection, schedule: Q01DX009 (ip), vehicle: Klucel (hydroxypropylcellulose) (HPC) 103 % of control | dose: 40.0 mg/kg/injection, schedule: Q01DX009 (sc), vehicle: saline 113 % of control | dose: 80.0 mg/kg/injection, schedule: Q01DX009 (ip), vehicle: saline with Tween-80 116 % of control | [4] 123 % of control | [6] 94 % of control
active: [2] 224 % of control | dose: 20.0 mg/kg/injection, schedule: Q01DX009 (ip), vehicle: saline with Tween-80 166 % of control | dose: 40.0 mg/kg/injection, schedule: Q01DX009 (ip), vehicle: saline with Tween-80 178 % of control | [3] 159 % of control | dose: 80.0 mg/kg/injection, schedule: Q04DX003 (ip), vehicle: Klucel (hydroxypropylcellulose) (HPC) 164 % of control | dose: 80.0 mg/kg/injection, schedule: Q04DX003 (ip), vehicle: saline with Tween-80 151 % of control | dose: 160.0 mg/kg/injection, schedule: Q04DX003 (ip), vehicle: Klucel (hydroxypropylcellulose) (HPC) 206 % of control | dose: 160.0 mg/kg/injection, schedule: Q04DX003 (ip), vehicle: saline with Tween-80 168 % of control | [5] 167 % of control

CCCCCCCC[n+]1cccc(C(N)=O)c1
inactive: dose: 100.0 mg/kg/injection, schedule: Q04DX003 (ip), vehicle: saline with Tween-80 98 % of control | dose: 200.0 mg/kg/injection, schedule: Q04DX003 (ip), vehicle: saline with Tween-80 89 % of control

CN(C)C(C)(C)CNc1ccc(C(=O)O)cc1
inactive: dose: 6.0 mg/kg/injection, schedule: Q01DX009 (ip), vehicle: saline 96 % of control | dose: 12.0 mg/kg/injection, schedule: Q01DX009 (ip), vehicle: saline 97 % of control | dose: 25.0 mg/kg/injection, schedule: Q01DX009 (ip), vehicle: saline 100 % of control and 98 % of control | dose: 50.0 mg/kg/injection, schedule: Q01DX009 (ip), vehicle: saline 109 % of control | [4] 98 % of control | [5] 101 % of control

CN(C)C(=S)N1CC2C3CCC(O3)C2C1 (stereo not given)
inactive: [7] 95 % of control | [8] 104 % of control

CCC[n+]1ccc(C#N)cc1
inactive: [9] 106 % of control | dose: 150.0 mg/kg/injection, schedule: Q01DX001 (ip), vehicle: saline 89 % of control

CC(C)(C)C1CCNC(=O)CC1 (stereo not given)
inactive: [1] 95 % of control | [2] 103 % of control | dose: 20.0 mg/kg/injection, schedule: Q04DX003 (ip), vehicle: Klucel (hydroxypropylcellulose) (HPC) 107 % of control | dose: 40.0 mg/kg/injection, schedule: Q04DX003 (ip), vehicle: Klucel (hydroxypropylcellulose) (HPC) 103 % of control | dose: 75.0 mg/kg/injection, schedule: Q01DX001 (ip), vehicle: carboxymethylcellulose (CMC) 102 % of control | dose: 150.0 mg/kg/injection, schedule: Q01DX001 (ip), vehicle: carboxymethylcellulose (CMC) 102 % of control | dose: 300.0 mg/kg/injection, schedule: Q01DX001 (ip), vehicle: carboxymethylcellulose (CMC) 96 % of control

COC1OC(COC(=S)SCc2ccccc2)C(O)C(O)C1O (stereo not given)
inactive: dose: 50.0 mg/kg/injection, schedule: Q04DX002 (ip), vehicle: saline 113 % of control | dose: 100.0 mg/kg/injection, schedule: Q04DX002 (ip), vehicle: saline 110 % of control | dose: 200.0 mg/kg/injection, schedule: Q04DX002 (ip), vehicle: saline 92 % of control

CC(C)CC(CC(C)C)C(=O)C1C2CCC(O2)C1C(=O)C(CC(C)C)CC(C)C (stereo not given)
inactive: dose: 6.25 mg/kg/injection, schedule: Q04DX002 (ip), vehicle: saline with Tween-80 94 % of control | dose: 12.5 mg/kg/injection, schedule: Q04DX002 (ip), vehicle: saline with Tween-80 94 % of control | dose: 25.0 mg/kg/injection, schedule: Q04DX002 (ip), vehicle: saline with Tween-80 86 % of control

O=S(=O)(O)CBr
inactive: dose: 100.0 mg/kg/injection, schedule: Q01DX001 (ip), vehicle: saline 107 % of control | dose: 100.0 mg/kg/injection, schedule: Q01DX009 (ip), vehicle: saline 91 % of control | [4] 100 % of control | dose: 200.0 mg/kg/injection, schedule: Q01DX001 (ip), vehicle: saline 106 % of control | dose: 200.0 mg/kg/injection, schedule: Q01DX009 (ip), vehicle: saline 96 % of control | [5] 100 % of control | dose: 400.0 mg/kg/injection, schedule: Q01DX001 (ip), vehicle: saline 109 % of control | dose: 400.0 mg/kg/injection, schedule: Q01DX009 (ip), vehicle: saline 98 % of control | [6] 106 % of control

Clc1cc(Cl)cc(N=Nc2ccccc2)c1
inactive: [7] 102 % of control | [8] 103 % of control | dose: 400.0 mg/kg/injection, schedule: Q04DX003 (ip), vehicle: Klucel (hydroxypropylcellulose) (HPC) 103 % of control

Cc1ccc(S(=O)(=O)OC(C(F)(F)F)C(F)(F)F)cc1
inactive: dose: 100.0 mg/kg/injection, schedule: Q04DX002 (ip), vehicle: Klucel (hydroxypropylcellulose) (HPC) 97 % of control | dose: 200.0 mg/kg/injection, schedule: Q04DX002 (ip), vehicle: Klucel (hydroxypropylcellulose) (HPC) 90 % of control | dose: 400.0 mg/kg/injection, schedule: Q04DX002 (ip), vehicle: Klucel (hydroxypropylcellulose) (HPC) 101 % of control

O=[N+]([O-])c1ccc(N=Nc2ccc3c(c2)-c2ccccc2/C3=C\c2cccc([N+](=O)[O-])c2)cc1
inactive: dose: 100.0 mg/kg/injection, schedule: Q01DX001 (ip), vehicle: carboxymethylcellulose (CMC) 93 % of control | dose: 200.0 mg/kg/injection, schedule: Q01DX001 (ip), vehicle: carboxymethylcellulose (CMC) 96 % of control | dose: 400.0 mg/kg/injection, schedule: Q01DX001 (ip), vehicle: carboxymethylcellulose (CMC) 98 % of control

CC(=O)OCCC(C)Nc1ccnc2cc(Cl)ccc12 (stereo not given)
inactive: dose: 20.0 mg/kg/injection, schedule: Q04DX003 (ip), vehicle: saline with Tween-80 92 % of control | [3] 87 % of control

O=c1c(N=Nc2ccc(Cl)cc2)c(O)n(-c2ccc(Cl)cc2)c(=S)n1-c1ccccc1
inactive: dose: 50.0 mg/kg/injection, schedule: Q01DX001 (ip), vehicle: Klucel (hydroxypropylcellulose) (HPC) 108 % of control | dose: 100.0 mg/kg/injection, schedule: Q01DX001 (ip), vehicle: Klucel (hydroxypropylcellulose) (HPC) 94 % of control | dose: 200.0 mg/kg/injection, schedule: Q01DX001 (ip), vehicle: Klucel (hydroxypropylcellulose) (HPC) 100 % of control

CSc1cccc(NC(=S)NC(=O)c2ccccc2)c1
inactive: dose: 25.0 mg/kg/injection, schedule: Q01DX009 (ip), vehicle: Klucel (hydroxypropylcellulose) (HPC) 96 % of control | dose: 50.0 mg/kg/injection, schedule: Q01DX009 (ip), vehicle: Klucel (hydroxypropylcellulose) (HPC) 94 % of control | [10] 91 % of control

CCCSc1ccc2c3c(cccc13)C(=O)OC2=O
inactive: [10] 101 % of control | dose: 200.0 mg/kg/injection, schedule: Q01DX009 (ip), vehicle: Klucel (hydroxypropylcellulose) (HPC) 98 % of control

CCCCCC[n+]1ccc(C#N)cc1
inactive: [9] 101 % of control

CCCNC(=O)c1cc(NC(=O)Nc2ccc(C3=NCCN3)cc2)cc(NC(=O)Nc2ccc(C3=NCCN3)cc2)c1
inactive: dose: 2.5 mg/kg/injection, schedule: Q01DX Z (ip), vehicle: carboxymethylcellulose (CMC) 104 % of control | dose: 5.0 mg/kg/injection, schedule: Q01DX Z (ip), vehicle: carboxymethylcellulose (CMC) 112 % of control | dose: 20.0 mg/kg/injection, schedule: Q01DX Z (ip), vehicle: carboxymethylcellulose (CMC) 124 % of control | dose: 42.0 mg/kg/injection, schedule: Q01DX Z (ip), vehicle: carboxymethylcellulose (CMC) 115 % of control
